PubChem BioAssay (NCI)
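Test compounds were applied to cells in 96-well plates for 48 hours at 5 doses. GI50 marks 50% less growth. TGI is the concentration that stops growth completely.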

Legend:
Assay in all cases: NCI-60 cell line screen, 48 h
CAKI-1 renal = tested on: CAKI-1 renal
HOP-18 NSCLC = tested on: HOP-18 NSCLC
SNB-78 CNS = tested on: SNB-78 CNS
OVCAR-3 ovarian = tested on: OVCAR-3 ovarian
A498 renal = tested on: A498 renal
SF-295 CNS = tested on: SF-295 CNS
SR leukemia = tested on: SR leukemia
BT-549 breast = tested on: BT-549 breast
MOLT-4 leukemia = tested on: MOLT-4 leukemia
NCI-H522 lung = tested on: NCI-H522 lung

Row | SMILES | TGI (CAKI-1 renal) [µM] | TGI (HOP-18 NSCLC) [µM] | TGI (SNB-78 CNS) [µM] | TGI (OVCAR-3 ovarian) [µM] | TGI (A498 renal) [µM] | TGI (SF-295 CNS) [µM] | TGI (SR leukemia) [µM] | GI50 (BT-549 breast) [µM] | TGI (BT-549 breast) [µM] | GI50 (CAKI-1 renal) [nM] | GI50 (MOLT-4 leukemia) [nM] | TGI (MOLT-4 leukemia) [µM] | GI50 (OVCAR-3 ovarian) [nM] | GI50 (NCI-H522 lung) [nM] | TGI (NCI-H522 lung) [µM] | GI50 (A498 renal) [nM] | GI50 (SF-295 CNS) [nM] | GI50 (SR leukemia) [nM] | GI50 (HOP-18 NSCLC) [µM]
1 | O=C1CCC2(c3ccccc3)OCC([C@@H](O)c3ccccc3)N12 (stereo partly drawn) | > 100 | > 100 | > 100 | > 100 | > 100 | > 100 | > 100 | – | – | – | – | – | – | – | – | – | – | – | –
2 | C=C1CC[C@@](C)(c2cc(Br)c(C)cc2OC(C)=O)[C@H]1C | 28.8 | – | – | 29.2 | 31.6 | 23.2 | 27.1 | 19 | 34.1 | 14700 | 9990 | 24.8 | 14600 | 15000 | 31.4 | 16800 | 10700 | 11200 | –
3 | O=C(CC(=O)N1N=C(n2ccc3ccccc32)CC1c1ccccc1)Nc1ccccc1Cl (stereo not drawn) | – | > 100 | > 100 | > 100 | > 100 | > 100 | – | – | – | – | – | > 100 | – | – | > 100 | – | – | – | –
4 | CC1CN1c1c(C(=O)/C=C/c2ccc(F)cc2)c(-c2ccccc2)nn(C)c1=O (stereo not drawn) | – | 33.2 | 67.3 | 28.9 | – | 30.2 | – | – | – | – | – | 58.2 | – | – | – | – | – | – | –
5 | CCOC(=O)C(Cc1ccccc1)n1c(O)c(/C=N/c2ncc(Cc3ccc(Cl)cc3Cl)s2)sc1=S (stereo not drawn) | > 100 | – | – | 9.96 | 7.64 | 6.84 | > 100 | 2.37 | 8.23 | 1710 | 3290 | > 100 | 2840 | 1310 | 5.7 | 1580 | 2310 | 3980 | –
6 | CCP(C)(=O)CC | > 100 | > 100 | > 100 | > 100 | – | > 100 | > 100 | – | – | – | – | > 100 | – | – | – | – | – | – | –
7 | COC(=O)C1=C(C)N(NC(N)=O)C2(N)N(NC(N)=O)C(C)=C(C(=O)OC)C12C#N (stereo not drawn) | > 100 | > 100 | > 100 | > 100 | > 100 | > 100 | – | – | – | – | – | > 100 | – | – | > 100 | – | – | – | –
8 | Cc1cc(NS(=O)(=O)c2ccc(-c3cnc(C4CC4)o3)cc2)ccc1Cl | 15.5 | – | – | 11.4 | 0.676 | 2.57 | 45.6 | 1.06 | 16.6 | 90.8 | 525 | 46.8 | 74.5 | 76.1 | 3.38 | 82.8 | 99.5 | 91.9 | –
9 | CC(C)(C)c1cc(Cc2ccc(S(C)(=O)=O)cc2)c(O)c(C(C)(C)C)c1 | 29.8 | 37.2 | 31.4 | – | 30.3 | 25.8 | 29.5 | – | – | – | – | 27.4 | – | – | 24.9 | – | – | – | –
10 | CC(=O)[CH-]C(=O)c1ccccc1.CC(=O)[CH-]C(=O)c1ccccc1.CC[C@H](CCC(C)[C@H]1CCC2[C@@H]3CC=C4C[C@@H]([O-])CC[C@]4(C)C3CC[C@@]21C)C(C)C.CC[C@H](CCC(C)[C@H]1CCC2[C@@H]3CC=C4C[C@@H]([O-])CC[C@]4(C)C3CC[C@@]21C)C(C)C.Cl.[Ti+4] (stereo partly drawn) | > 25 | > 25 | – | > 25 | > 25 | > 25 | – | – | – | – | – | > 25 | – | – | > 25 | > 25000 | – | – | > 25
11 | c1ccc(-c2sc(-c3ccccc3)c3c2C(c2ccccc2)c2c(-c4ccccc4)sc(-c4ccccc4)c2C3c2ccccc2)cc1 (stereo not drawn) | > 100 | – | > 100 | > 100 | > 100 | > 100 | > 100 | – | – | – | – | – | – | – | > 100 | – | – | – | –
12 | CCc1nc(N)nc(N)c1-c1ccc(N2CCNCC2)c([N+](=O)[O-])c1 | > 100 | – | – | > 100 | > 100 | > 100 | > 100 | – | > 100 | – | – | > 100 | – | – | > 100 | – | – | – | –
13 | O=C(Nc1nc2ccc(OC(F)(F)F)cc2s1)c1ccc(F)cc1 | 7.26 | – | – | 7.2 | 9.2 | 9.35 | 14.1 | 3.76 | 54.6 | 2290 | 3080 | 84.9 | 2220 | 3140 | 11.4 | 2930 | 2540 | 3680 | –
14 | Cc1cc(C)c([O-])c(-[n+]2c(-c3ccccc3)cc(-c3ccccc3)cc2-c2ccccc2)c1 | 22.1 | 16.2 | 27.7 | 12 | – | 17.1 | 11.8 | – | – | – | – | > 100 | – | – | – | – | – | – | –
15 | C=C(CC)C(=O)c1ccc(OCC(=O)O)c(Cl)c1Cl | 28.1 | – | – | 30.1 | > 100 | > 100 | > 100 | – | 17.2 | – | – | > 62.2 | – | – | 29.6 | – | – | – | –
16 | COC(=O)NC1=Nc2ccccc2C(=O)NN1 | > 100 | – | – | > 100 | > 100 | > 100 | > 100 | – | > 100 | – | – | > 100 | – | – | > 100 | – | – | – | –
17 | CCCCNC(=O)CC1=C(C)/C(=C/c2[nH]c(-c3ccc[nH]3)cc2OC)N=C1C | 9.3 | – | – | 9.77 | 7.43 | 3.48 | 5.43 | 3.74 | 19.9 | 2560 | 1930 | 9 | 2580 | 1800 | 4.89 | 2540 | 1600 | 1870 | –
18 | CN(C)C/C=C/C(=O)Nc1ccc(C(=O)Nc2cccc(Nc3ncc(Cl)c(-c4c[nH]c5ccccc45)n3)c2)cc1 | 0.686 | – | – | 0.0903 | 0.119 | 0.475 | > 100 | 0.0336 | 0.42 | 60.7 | 32 | > 100 | < 12.2 | 17.2 | 0.094 | 18.9 | 155 | 17 | –
19 | CCN1CCCCCCCCCC(=N/O)/C(=N\O)C1 | > 100 | – | – | > 100 | > 100 | > 100 | > 100 | – | > 100 | – | – | > 100 | – | – | > 100 | – | – | – | –
